In patent publication US20240349725A1, “FORMULATION COMPRISING AN ACID FUNCTION ACTIVE INGREDIENT, ESTER FUNCTION ACTIVE INGREDIENT AND SALT AND/OR CHEMICALLY LABILE ACTIVE INGREDIENT, THE USE THEREOF AND METHOD OF PRODUCTION” (Iharabrás S.A. Indústrias Químicas, priority 2021, published 2024):

Experiment: In-house compatibility observations of the actives with acids / 2,4-D amine salt solution
Assay type: physicochemical
Text: Secondary amine salt formulations diethanolamine, diisopropanolamine) of 2,4-D and other herbicides containing a carboxylic acid function (2,4,5-T, ticlopyr, dicamba, picloram, aminopyralid, others) are extremely hydrophilic, being normally conveyed as a concentrated aqueous solution of high pH to avoid crystallization of the salt/free acid. […] As discussed, these active ingredients have physical-chemical features that make it difficult for them to be used together in the same formulation. In addition to this is the easy decomposition through base-catalyzed hydrolysis, of active ingredients containing the ester function, such as lactofen, if they were soluble or emulsified in an alkaline solution, as is the case of the aqueous solution of amine salts of 2,4-D. This effect was observed when lactofen was dissolved in a naphthenic organic solvent and then emulsified in a solution of 2,4-D dimethylamine salt. Shortly afterwards, lactofen had been decomposed even under mild temperature conditions, which made it impossible to provide this mixture under these conditions as a commercial product. It is also mentioned that, although the degradation kinetics may be different, compounds containing an ester group, such as lactofen, can also undergo solvolysis (hydrolysis if the solvent is water) in the presence of acids, which makes it impossible for lactofen to be transported with 2,4-D without neutralization of the latter by an alkaline compound. Bispyribac sodium is also a compound that easily degrades under different conditions. […] Bispyribac sodium is also known to only remain stable at pH levels close to neutral or slightly alkaline (7 to 9) and at temperatures around 25° C. and in the dark, with an acceleration of degradation under conditions other than these. These features of lactofen and bispyribac sodium make it difficult for one to develop formulations with other active ingredients, which may justify the absence of commercial products with these associated active ingredients.

COc1cc(OC)nc(Oc2cccc(Oc3nc(OC)cc(OC)n3)c2C(=O)O)n1 [Bispyribac sodium, bispyribac sodium]
degradation in the presence of acids (even in the absence of water, observed internally): degrades easily
degradation in the presence of unneutralized 2,4-D (high acidity of 2,4-D): fully degraded

CCOC(=O)C(C)OC(=O)c1cc(Oc2ccc(C(F)(F)F)cc2Cl)ccc1[N+](=O)[O-] (stereo not drawn) [Lactofen, lactofen]
decomposition when emulsified in a solution of 2,4-D dimethylamine salt (dissolved in naphthenic organic solvent, emulsified in 2,4-D dimethylamine salt solution, mild temperature): decomposed
